Experiments:
[1] = test system: Collagen Type II (CII) induced arthritis in rats; experiment: Treatment effect on Collagen Type II (CII) induced arthritis in rats; assay type: in vivo, Rat, SD strain
Description: Inflammation-induced agent: Collagen Type II was dissolved in 0.1 mol/L acetic acid to make final concentration be 2 mg/ml collagen solution, and held in 4° C. overnight. The Collagen Type II solution was added to cold Freund's Adjuvant Incomplete by drops (Collagen Type II: Freund's Adjuvant Incomplete=1:1) on the next day, emulsified completely (Type II Collagen solution: Freund's Adjuvant Incomplete=1:1), and the final concentration of Collagen Type II was 1 mg/ml. The Collagen Type II emulsion was reserved in a refrigerator at 4° C.
Immune method: Each rat was immunized by being injected subcutaneously at 5 points on the back with 0.1 ml emulsion in each point, total of […] (contained 0.5 mg Collagen Type II), and immunized again in the same way 7 days later. An emulsion of 0.1 mol/L acetic acid and Freund's Adjuvant Incomplete was injected in control group. The swell values of the arthrosis in right hind ankle and foot were measured respectively by using a hydroplethismometer before injection and 20 days after immunization.
Collagen Type II (CII) and Freund's Adjuvant Incomplete were ground into emulsion and were injected subcutaneously into the back of the rats for immunization. Until the 19th day, most parts of the pedal joint of the rats began to swell. Picked 40 rats out which were with swelled pedal joint and divided them into […] subsequently, i.e. 8 rats in each group. They are respectively […]: Ginsenoside Compound-K, 10 mg/kg, iv, medium dose group: Ginsenoside Compound-K, 5 mg/kg, iv, small dose group: Ginsenoside Compound-K, 2.5 mg/kg, iv, Enbrel group: 9 mg/kg, sc, Tripterygium Wilfordii Hook group: 1.5 mg/kg, po. and blank control group: physiological saline 10 mg/kg, iv. The rats were administered for 8 days consecutively. The swell value of the foot was measured respectively by using hydroplethismometer before inflammation induced and at different time after the onset of symptoms, then calculated swell rate and prohibition rate, and compared the differences among groups with t test.

[2] = mice, 360 mg/kg iv

With `CC(C)=CCC[C@](C)(O[C@@H]1O[C@H](CO)[C@@H](O)[C@H](O)[C@H]1O)[C@H]1CC[C@]2(C)[C@@H]1[C@H](O)C[C@@H]1[C@@]3(C)CC[C@H](O)C(C)(C)[C@@H]3CC[C@]12C` [Ginsenoside Compound-K, ginsenoside Compound-K] the swell value ([1]; 2.5 mg/kg iv, 0 day) was 1.03 ± 0.05 mL, the inhibition rate ([1]; 2.5 mg/kg iv, 20 day) was <18.95> % and the swell rate ([1]; 2.5 mg/kg iv, 20 day) was “(43.79 ± 12.08%”. For the same molecule, the swell value ([1]; 2.5 mg/kg iv, 20 day) was 1.48 ± 0.11 mL, the inhibition rate ([1]; 2.5 mg/kg iv, 22 day) was <19.94> % and the swell rate ([1]; 2.5 mg/kg iv, 22 day) was “(48.22 ± 10.27) %”. For the same molecule, the swell value ([1]; 2.5 mg/kg iv, 22 day) was 1.53 ± 0.06 mL, the inhibition rate ([1]; 2.5 mg/kg iv, 23 day) was <17.70> % and the swell rate ([1]; 2.5 mg/kg iv, 23 day) was “(51.23 ± 9.82) %”. The swell value ([1]; 2.5 mg/kg iv, 23 day) was 1.56 ± 0.06 mL, the inhibition rate ([1]; 2.5 mg/kg iv, 25 day) was <16.26> % and the swell rate ([1]; 2.5 mg/kg iv, 25 day) was “(51.66 ± 18.36) %”. The swell value ([1]; 2.5 mg/kg iv, 25 day) was 1.56 ± 0.16 mL, the inhibition rate ([1]; 2.5 mg/kg iv, 28 day) was <20.52> % and the swell rate ([1]; 2.5 mg/kg iv, 28 day) was “(41.04 ± 10.92) %”. The swell value ([1]; 2.5 mg/kg iv, 28 day) was 1.45 ± 0.10 mL, the inhibition rate ([1]; 2.5 mg/kg iv, 31 day) was <22.73> % and the swell rate ([1]; 2.5 mg/kg iv, 31 day) was “(37.86 ± 11.18) %”. The swell value ([1]; 2.5 mg/kg iv, 31 day) was 1.42 ± 0.10 mL, the swell value ([1]; 5 mg/kg iv, 0 day) was 1.03 ± 0.05 mL and the inhibition rate ([1]; 5 mg/kg iv, 20 day) was <9.35> %. The swell rate ([1]; 5 mg/kg iv, 20 day) was “(48.97 ± 27.82%”, the swell value ([1]; 5 mg/kg iv, 20 day) was 1.52 ± 0.21 mL and the inhibition rate ([1]; 5 mg/kg iv, 22 day) was <12.39> %. For the same molecule, the swell rate ([1]; 5 mg/kg iv, 22 day) was “(52.77 ± 21.55) %”, the swell value ([1]; 5 mg/kg iv, 22 day) was 1.56 ± 0.15 mL and the inhibition rate ([1]; 5 mg/kg iv, 23 day) was <13.87> %. For the same molecule, the swell rate ([1]; 5 mg/kg iv, 23 day) was “(53.62 ± 14.27) %”, the swell value ([1]; 5 mg/kg iv, 23 day) was 1.58 ± 0.13 mL and the inhibition rate ([1]; 5 mg/kg iv, 25 day) was <15.62> %. The swell rate ([1]; 5 mg/kg iv, 25 day) was “(52.06 ± 18.56) %”, the swell value ([1]; 5 mg/kg iv, 25 day) was 1.56 ± 0.19 mL and the inhibition rate ([1]; 5 mg/kg iv, 28 day) was <13.17> %. The swell rate ([1]; 5 mg/kg iv, 28 day) was “(44.84 ± 25.91) %”, the swell value ([1]; 5 mg/kg iv, 28 day) was 1.49 ± 0.28 mL and the inhibition rate ([1]; 5 mg/kg iv, 31 day) was <15.64> %. For the same molecule, the swell rate ([1]; 5 mg/kg iv, 31 day) was “(41.34 ± 13.83) %”, the swell value ([1]; 5 mg/kg iv, 31 day) was 1.45 ± 0.13 mL and the swell value ([1]; 10 mg/kg iv, 0 day) was 1.04 ± 0.19 mL. The inhibition rate ([1]; 10 mg/kg iv, 20 day) was <12.61> %, the swell rate ([1]; 10 mg/kg iv, 20 day) was “(47.22 ± 18.60) %” and the swell value ([1]; 10 mg/kg iv, 20 day) was less than 1.52 ± 0.19 mL. For the same molecule, the inhibition rate ([1]; 10 mg/kg iv, 22 day) was <16.28> %, the swell rate ([1]; 10 mg/kg iv, 22 day) was “(50.43 ± 9.45) %” and the swell value ([1]; 10 mg/kg iv, 22 day) was 1.54 ± 0.12 mL. For the same molecule, the inhibition rate ([1]; 10 mg/kg iv, 23 day) was <19.28> %, the swell rate ([1]; 10 mg/kg iv, 23 day) was “(50.25 ± 22.06) %” and the swell value ([1]; 10 mg/kg iv, 23 day) was 1.54 ± 0.10 mL. The inhibition rate ([1]; 10 mg/kg iv, 25 day) was <17.95> %, the swell rate ([1]; 10 mg/kg iv, 25 day) was “(50.62 ± 21.43) %” and the swell value ([1]; 10 mg/kg iv, 25 day) was 1.54 ± 0.12 mL. For the same molecule, the inhibition rate ([1]; 10 mg/kg iv, 28 day) was <22.09> %, the swell rate ([1]; 10 mg/kg iv, 28 day) was “(40.23 ± 16.26) %” and the swell value ([1]; 10 mg/kg iv, 28 day) was 1.44 ± 0.13 mL. The inhibition rate ([1]; 10 mg/kg iv, 31 day) was <27.67> %, the swell rate ([1]; 10 mg/kg iv, 31 day) was “(35.44 ± 22.50) %” and the swell value ([1]; 10 mg/kg iv, 31 day) was 1.38 ± 0.11 mL. The “overall treatment effect on Collagen Type II induced arthritis” value ([1]; rats, 10, 5, 2.5 mg/kg iv for 8 days) was “able to cure Collagen Type II induced arthritis” and the “behaviour after intravenous injection” value [2] was “their act was normal and no behavior out of the way was observed”.
